Measured values: patent publication US9955691B2, “Macrocyclic picolinamides as fungicides” (DOW AGROSCIENCES LLC, priority 2014, dated 2018)
Where two headings read alike, the source gives them in different places.

Assays:
[1] = tested on: Mycosphaerella graminicola; Anamorph: Septoria tritici; assay: Fungicidal activity: Leaf Blotch of Wheat (SEPTTR); format: in vivo; conditions: Zymoseptoria tritici, wheat leaf blotch; for pest or weed control at 100 µg/mL: High Volume (100 ppm); for pest or weed control at 121.5 g/ha: Low Volume (121.5 g/H)
Method: Evaluation of Fungicidal Activity: Leaf Blotch of Wheat (Mycosphaerella graminicola; Anamorph: Septoria tritici; Bayer Code […]) Technical grades of materials were dissolved in acetone, which were then mixed with nine volumes of water containing 110 ppm Triton X-100. The fungicide solutions were applied onto wheat seedlings using an automated booth sprayer to run-off. All sprayed plants were allowed to air dry prior to further handling. All fungicides were evaluated using the aforementioned method for their activity vs. all target diseases, unless stated otherwise. Wheat leaf blotch and brown rust activity were also evaluated using track spray applications, in which case the fungicides were formulated as EC formulations, containing 0.1% Trycol 5941 in the spray solutions. Wheat plants (variety Yuma) were grown from seed in a greenhouse in 50% mineral soil/50% soil-less Metro mix until the first leaf was fully emerged, with 7-10 seedlings per pot. These plants were inoculated with an aqueous spore suspension of Septoria tritici either prior to or after fungicide treatments. After inoculation the plants were kept in 100% relative humidity (one day in a dark dew chamber followed by two to three days in a lighted dew chamber at 20° C.) to permit spores to germinate and infect the leaf. The plants were then transferred to a greenhouse set at 20° C. for disease to develop. When disease symptoms were fully expressed on the 1st leaves of untreated plants, infection levels were assessed on a scale of 0 to 100 percent disease severity. Percent disease control was calculated using the ratio of disease severity on treated plants relative to untreated plants.

[2] = tested on: Puccinia triticina; assay: Fungicidal activity: Wheat Brown Rust (PUCCRT); format: in vivo; conditions: for pest or weed control at 100 µg/mL: High Volume (100 ppm); for pest or weed control at 121.5 g/ha: Low Volume (121.5 g/H)
Method: Technical grades of materials were dissolved in acetone, which were then mixed with nine volumes of water containing 110 ppm Triton X-100. The fungicide solutions were applied onto wheat seedlings using an automated booth sprayer to run-off. All sprayed plants were allowed to air dry prior to further handling. All fungicides were evaluated using the aforementioned method for their activity vs. all target diseases, unless stated otherwise. Wheat leaf blotch and brown rust activity were also evaluated using track spray applications, in which case the fungicides were formulated as EC formulations, containing 0.1% Trycol 5941 in the spray solutions. Wheat plants (variety Yuma) were grown from seed in a greenhouse in 50% mineral soil/50% soil-less Metro mix until the first leaf was fully emerged, with 7-10 seedlings per pot. These plants were inoculated with an aqueous spore suspension of Septoria tritici either prior to or after fungicide treatments. After inoculation the plants were kept in 100% relative humidity (one day in a dark dew chamber followed by two to three days in a lighted dew chamber at 20° C.) to permit spores to germinate and infect the leaf. The plants were then transferred to a greenhouse set at 20° C. for disease to develop. When disease symptoms were fully expressed on the 1st leaves of untreated plants, infection levels were assessed on a scale of 0 to 100 percent disease severity. Percent disease control was calculated using the ratio of disease severity on treated plants relative to untreated plants. Evaluation of Fungicidal Activity: Wheat Brown Rust (Puccinia triticina; Synonym: Puccinia recondite f. Sp. Tritici; Bayer Code PUCCRT) Wheat plants (variety Yuma) were grown from seed in a greenhouse in 50% mineral soil/50% soil-less Metro mix until the first leaf was fully emerged, with 7-10 seedlings per pot. These plants were inoculated with an aqueous spore suspension of Puccinia triticina either prior to or after fungicide treatments. After inoculation the plants were kept in a dark dew room at 22° C. with 100% relative humidity overnight to permit spores to germinate and infect the leaf. The plants were then transferred to a greenhouse set at 24° C. for disease to develop. Fungicide formulation, application and disease assessment followed the procedures as described in the Example A.

[3] = 24 h, 1 Day Protectant, read-out: SEPTTR 1 DP disease control
[4] = 72 h, 3 Day Curative, read-out: SEPTTR 3 DC disease control
[5] = 24 h, 1 Day Protectant, read-out: PUCCRT 1 DP disease control
[6] = 72 h, 3 Day Curative, read-out: PUCCRT 3 DC disease control

| Compound | pest or weed control at 100 µg/mL [1, 3] | pest or weed control at 100 µg/mL [1, 4] | pest or weed control at 100 µg/mL [2, 5] | pest or weed control at 100 µg/mL [2, 6] | pest or weed control at 121.5 g/ha [1, 3] | pest or weed control at 121.5 g/ha [1, 4] | pest or weed control at 121.5 g/ha [2, 5] | pest or weed control at 121.5 g/ha [2, 6] |
| --- | --- | --- | --- | --- | --- | --- | --- | --- |
| COc1ccnc(C(=O)N[C@H]2COC[C@H](Cc3ccccc3)[C@@H](Cc3ccccc3)[C@@H](C)OC2=O)c1OCOC(C)=O [compound 2] | < 70% | < 70% | < 70% | < 70% | – | – | – | – |
| COc1ccnc(C(=O)N[C@H]2COC[C@@H]3CCCC[C@H]3[C@@H](C)OC2=O)c1OCOC(C)=O [compound 5] | < 70% | < 70% | < 70% | – | – | – | – | – |
| COc1ccnc(C(=O)N[C@H]2COC[C@@H]3CCCC[C@H]3[C@H](C)OC2=O)c1OCOC(C)=O [compound 6] | < 70% | < 70% | > 70% | – | – | – | – | – |
| COc1ccnc(C(=O)N[C@H]2COC[C@H](CCC(C)C)[C@@H](CCC(C)C)[C@H](C)OC2=O)c1OCOC(C)=O [compound 8] | > 70% | > 70% | > 70% | > 70% | – | – | – | – |
| COc1ccnc(C(=O)N[C@H]2COC[C@H](Cc3ccccc3)[C@@H](COCC(C)C)[C@H](C)OC2=O)c1OCOC(C)=O [compound 12] | > 70% | > 70% | > 70% | > 70% | > 70% | > 70% | > 70% | < 70% |
| CCCC[C@@H]1[C@@H](Cc2ccccc2)COC[C@H](NC(=O)c2nccc(OC)c2OCOC(C)=O)C(=O)O[C@H]1C [compound 14] | < 70% | < 70% | < 70% | < 70% | – | – | – | – |
| CCCC[C@@H]1[C@@H](Cc2ccccc2)COC[C@H](NC(=O)c2nccc(OC)c2OC(C)=O)C(=O)O[C@H]1C [compound 15] | > 70% | > 70% | > 70% | > 70% | > 70% | > 70% | > 70% | > 70% |
| COc1ccnc(C(=O)N[C@H]2COC[C@H](Cc3ccccc3)[C@@H](CC(C)C)[C@H](C)OC2=O)c1OC(C)=O [compound 18] | – | – | – | – | > 70% | > 70% | > 70% | < 70% |
| COc1ccnc(C(=O)N[C@H]2COC[C@H](Cc3ccccc3)[C@@H](CC(C)C)[C@H](C)OC2=O)c1OCOC(C)=O [compound 19] | – | – | – | – | > 70% | > 70% | > 70% | > 70% |
| COc1ccnc(C(=O)N[C@H]2COC[C@H](Cc3ccccc3)[C@@H](CC(C)C)[C@H](C)OC2=O)c1OCOC(=O)C(C)C [compound 20] | – | – | – | – | > 70% | > 70% | > 70% | > 70% |
| CCOCC(=O)OCOc1c(OC)ccnc1C(=O)N[C@H]1COC[C@H](Cc2ccccc2)[C@@H](CC(C)C)[C@H](C)OC1=O [compound 21] | – | – | – | – | > 70% | > 70% | > 70% | > 70% |
| CCC[C@H]1COC[C@H](NC(=O)c2nccc(OC)c2OC(C)=O)C(=O)O[C@@H](C)[C@@H]1Cc1ccccc1 [compound 22] | – | – | – | – | > 70% | > 70% | > 70% | > 70% |
| CCC[C@H]1COC[C@H](NC(=O)c2nccc(OC)c2OCOC(C)=O)C(=O)O[C@@H](C)[C@@H]1Cc1ccccc1 [compound 23] | – | – | – | – | > 70% | > 70% | > 70% | > 70% |
| CCC[C@H]1COC[C@H](NC(=O)c2nccc(OC)c2OCOC(=O)C(C)C)C(=O)O[C@@H](C)[C@@H]1Cc1ccccc1 [compound 24] | – | – | – | – | > 70% | > 70% | > 70% | > 70% |
| CCC[C@H]1COC[C@H](NC(=O)c2nccc(OC)c2OCOC(=O)COCC)C(=O)O[C@@H](C)[C@@H]1Cc1ccccc1 [compound 25] | – | – | – | – | > 70% | > 70% | > 70% | > 70% |
| COc1ccnc(C(=O)N[C@H]2COC[C@H](CC3CCCC3)[C@@H](CC3CCCC3)[C@H](C)OC2=O)c1OCOC(C)=O [compound 26] | – | – | – | – | > 70% | > 70% | > 70% | > 70% |
| CCOCC(=O)OCOc1c(OC)ccnc1C(=O)N[C@H]1COC[C@H](Cc2ccccc2)[C@@H](Cc2ccccc2)[C@H](C)OC1=O [compound 28] | – | – | – | – | > 70% | > 70% | > 70% | > 70% |
| COc1ccnc(C(=O)N[C@H]2COC[C@H](Cc3ccccc3)[C@@H](CCc3ccccc3)[C@H](C)OC2=O)c1OC(C)=O [compound 29] | – | – | – | – | > 70% | > 70% | > 70% | > 70% |
| COc1ccnc(C(=O)N[C@H]2COC[C@H](Cc3ccccc3)[C@@H](CCc3ccccc3)[C@H](C)OC2=O)c1OCOC(C)=O [compound 30] | – | – | – | – | > 70% | > 70% | > 70% | > 70% |
| COc1ccnc(C(=O)N[C@H]2COC[C@H](Cc3ccccc3)[C@@H](CCc3ccccc3)[C@H](C)OC2=O)c1OCOC(=O)C(C)C [compound 31] | – | – | – | – | > 70% | > 70% | > 70% | > 70% |
| CCOCC(=O)OCOc1c(OC)ccnc1C(=O)N[C@H]1COC[C@H](Cc2ccccc2)[C@@H](CCc2ccccc2)[C@H](C)OC1=O [compound 32] | – | – | – | – | > 70% | > 70% | > 70% | > 70% |
| COc1ccnc(C(=O)N[C@H]2COC[C@H](CCC(C)C)[C@@H](CCc3ccccc3)[C@H](C)OC2=O)c1OC(C)=O [compound 33] | – | – | – | – | > 70% | > 70% | > 70% | > 70% |
| COc1ccnc(C(=O)N[C@H]2COC[C@H](CCC(C)C)[C@@H](CCc3ccccc3)[C@H](C)OC2=O)c1OCOC(C)=O [compound 34] | – | – | – | – | > 70% | > 70% | > 70% | > 70% |
| COc1ccnc(C(=O)N[C@H]2COC[C@H](CCC(C)C)[C@@H](CCc3ccccc3)[C@H](C)OC2=O)c1OCOC(=O)C(C)C [compound 35] | – | – | – | – | > 70% | > 70% | > 70% | > 70% |
